Measured values reported in the Kinase Knowledgebase extract (Sharma et al. 2016).

Experiments:
[1] = biological target: PIK3CD (Human) (UniProt O00329); assay: Cell-Based Assay; details: rat-1
[2] = biological target: PIK3CG (human) (UniProt P48736); assay: Cell-Based Assay; details: u937
[3] = biological target: PIK3CA (human) (UniProt P42336); assay: Cell-Based Assay; details: rat-1
[4] = biological target: PIK3CD (Human) (UniProt O00329); assay: Enzyme Assay
[5] = biological target: PIK3CG (human) (UniProt P48736); assay: Enzyme Assay
[6] = biological target: PIK3CA (human) (UniProt P42336); assay: Enzyme Assay

Sequence of PIK3CD (Human) (O00329 whole entry, looked up): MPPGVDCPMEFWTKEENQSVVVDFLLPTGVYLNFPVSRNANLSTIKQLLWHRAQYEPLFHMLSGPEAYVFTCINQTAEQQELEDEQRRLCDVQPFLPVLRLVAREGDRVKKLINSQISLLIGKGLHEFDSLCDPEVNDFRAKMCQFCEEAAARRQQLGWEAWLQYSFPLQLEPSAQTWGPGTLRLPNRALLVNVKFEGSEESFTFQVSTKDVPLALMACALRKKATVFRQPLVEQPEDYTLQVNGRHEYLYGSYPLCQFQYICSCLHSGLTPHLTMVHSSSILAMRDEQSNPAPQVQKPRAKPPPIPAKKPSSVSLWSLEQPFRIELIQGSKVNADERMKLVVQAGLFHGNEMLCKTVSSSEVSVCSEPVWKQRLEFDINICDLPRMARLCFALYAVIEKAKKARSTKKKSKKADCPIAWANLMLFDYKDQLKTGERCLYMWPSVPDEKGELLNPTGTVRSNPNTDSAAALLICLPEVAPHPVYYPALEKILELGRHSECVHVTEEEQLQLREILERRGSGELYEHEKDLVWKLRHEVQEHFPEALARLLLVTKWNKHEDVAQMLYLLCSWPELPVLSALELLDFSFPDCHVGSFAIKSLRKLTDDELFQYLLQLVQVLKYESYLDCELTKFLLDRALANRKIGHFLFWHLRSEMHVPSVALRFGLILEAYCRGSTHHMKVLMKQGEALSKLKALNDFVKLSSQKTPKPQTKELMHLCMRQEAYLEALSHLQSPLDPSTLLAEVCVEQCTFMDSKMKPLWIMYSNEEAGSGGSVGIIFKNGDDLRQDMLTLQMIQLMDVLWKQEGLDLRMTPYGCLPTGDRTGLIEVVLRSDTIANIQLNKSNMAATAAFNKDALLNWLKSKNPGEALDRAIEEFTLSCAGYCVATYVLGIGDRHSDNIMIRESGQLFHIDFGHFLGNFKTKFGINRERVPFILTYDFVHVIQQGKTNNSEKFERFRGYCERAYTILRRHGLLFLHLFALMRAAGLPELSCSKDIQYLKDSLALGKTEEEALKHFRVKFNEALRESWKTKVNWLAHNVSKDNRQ
Sequence of PIK3CA (human) (P42336 whole entry, looked up): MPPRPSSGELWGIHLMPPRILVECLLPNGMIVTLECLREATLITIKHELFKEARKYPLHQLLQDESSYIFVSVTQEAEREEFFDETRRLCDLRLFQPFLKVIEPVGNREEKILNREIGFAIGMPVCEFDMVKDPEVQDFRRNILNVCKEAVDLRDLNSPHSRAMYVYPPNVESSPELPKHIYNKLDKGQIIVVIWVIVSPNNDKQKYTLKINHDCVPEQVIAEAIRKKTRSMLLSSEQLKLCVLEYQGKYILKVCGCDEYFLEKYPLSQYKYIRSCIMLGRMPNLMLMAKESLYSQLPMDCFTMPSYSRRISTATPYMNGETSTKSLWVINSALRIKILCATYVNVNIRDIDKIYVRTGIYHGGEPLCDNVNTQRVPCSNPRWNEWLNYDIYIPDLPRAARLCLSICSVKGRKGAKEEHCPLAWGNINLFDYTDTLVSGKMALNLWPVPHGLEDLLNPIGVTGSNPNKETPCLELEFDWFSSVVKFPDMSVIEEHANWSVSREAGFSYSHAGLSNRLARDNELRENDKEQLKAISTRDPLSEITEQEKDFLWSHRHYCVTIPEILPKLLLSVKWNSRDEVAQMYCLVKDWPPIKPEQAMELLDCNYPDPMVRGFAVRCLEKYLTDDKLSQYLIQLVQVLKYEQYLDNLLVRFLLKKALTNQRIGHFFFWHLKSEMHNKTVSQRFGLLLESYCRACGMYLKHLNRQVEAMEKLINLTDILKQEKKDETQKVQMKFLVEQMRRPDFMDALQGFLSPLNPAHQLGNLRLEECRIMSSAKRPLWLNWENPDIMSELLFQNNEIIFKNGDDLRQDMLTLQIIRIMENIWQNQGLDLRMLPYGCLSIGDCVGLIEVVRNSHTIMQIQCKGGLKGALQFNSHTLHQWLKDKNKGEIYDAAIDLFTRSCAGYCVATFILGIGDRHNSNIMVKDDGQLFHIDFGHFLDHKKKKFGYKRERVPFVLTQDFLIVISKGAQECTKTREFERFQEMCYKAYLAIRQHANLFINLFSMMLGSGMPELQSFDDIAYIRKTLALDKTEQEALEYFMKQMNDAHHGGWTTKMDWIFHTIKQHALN
Sequence of PIK3CG (human) (P48736 whole entry, looked up): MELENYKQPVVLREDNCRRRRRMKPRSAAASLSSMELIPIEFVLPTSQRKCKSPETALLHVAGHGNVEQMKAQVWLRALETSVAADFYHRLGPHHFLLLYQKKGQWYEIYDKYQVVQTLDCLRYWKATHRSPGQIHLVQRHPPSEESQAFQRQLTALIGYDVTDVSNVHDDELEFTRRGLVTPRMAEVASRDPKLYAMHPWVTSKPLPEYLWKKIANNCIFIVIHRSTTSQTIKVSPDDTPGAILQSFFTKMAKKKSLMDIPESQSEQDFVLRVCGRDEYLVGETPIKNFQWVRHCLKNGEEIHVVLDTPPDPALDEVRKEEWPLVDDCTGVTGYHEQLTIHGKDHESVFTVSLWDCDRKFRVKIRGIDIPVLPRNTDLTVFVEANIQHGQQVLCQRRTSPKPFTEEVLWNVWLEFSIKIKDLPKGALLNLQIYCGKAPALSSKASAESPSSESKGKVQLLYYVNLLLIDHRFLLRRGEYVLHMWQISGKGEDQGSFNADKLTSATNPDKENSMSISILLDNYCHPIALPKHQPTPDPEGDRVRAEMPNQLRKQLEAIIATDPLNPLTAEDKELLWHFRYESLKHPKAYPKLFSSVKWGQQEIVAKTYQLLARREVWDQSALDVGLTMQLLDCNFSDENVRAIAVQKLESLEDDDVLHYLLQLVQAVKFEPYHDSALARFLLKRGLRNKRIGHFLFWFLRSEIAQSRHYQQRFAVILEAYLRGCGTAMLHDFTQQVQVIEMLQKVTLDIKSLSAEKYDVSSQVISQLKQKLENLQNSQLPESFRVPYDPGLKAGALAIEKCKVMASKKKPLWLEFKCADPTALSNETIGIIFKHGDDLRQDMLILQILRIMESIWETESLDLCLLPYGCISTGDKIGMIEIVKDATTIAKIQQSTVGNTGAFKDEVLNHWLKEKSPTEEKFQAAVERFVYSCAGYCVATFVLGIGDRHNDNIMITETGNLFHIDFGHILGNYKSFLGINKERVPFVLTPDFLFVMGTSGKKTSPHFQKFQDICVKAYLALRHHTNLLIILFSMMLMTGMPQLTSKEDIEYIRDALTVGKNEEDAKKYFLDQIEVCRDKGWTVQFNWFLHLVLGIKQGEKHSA

SMILES	IC50 [1] [nM]	IC50 [2] [nM]	IC50 [3] [nM]	IC50 [4] [nM]	IC50 [5] [nM]	IC50 [6] [nM]
CO[C@H]1C[C@@H](c2nc3cccc(Cl)c3c(=O)n2C2CC2)N(c2ncnc(N)c2C#N)C1	26	473	3230	128	417	2800
Cn1cnc2c(N3CCC[C@H]3c3nc4cccc(Cl)c4c(=O)n3N3CCOCC3)nc(N)nc21	476	2360	–	2500	505	5250
Cc1ccc(-n2c([C@@H]3CSCN3c3ncnc4[nH]cnc34)nc3cccc(Cl)c3c2=O)s1	509	–	> 10000	140	820	> 10000
CO[C@H]1C[C@@H](c2nc3cccc(Cl)c3c(=O)n2N2CCOCC2)N(c2ncnc(N)c2C#N)C1	32	–	> 10000	66	380	4000
N#Cc1c(N)ncnc1N1CCC[C@H]1c1nc2cccc(Cl)c2c(=O)n1N1CCCCC1	278	–	> 10000	120	3200	> 10000
Cn1nccc1-n1c([C@@H]2CSCN2c2ncnc(N)c2C#N)nc2cccc(Cl)c2c1=O	> 10000	–	> 10000	7200	> 10000	> 10000
Cc1nc(N)nc(N2CCC[C@H]2c2nc3cccc(Cl)c3c(=O)n2C2CC2)c1C#N	61	–	1160	31	110	930
CO[C@H]1C[C@@H](c2nc3cccc(C(F)(F)F)c3c(=O)n2-c2ccccc2)N(c2nc(N)nc(C)c2C#N)C1	182	227	–	24	107	2100
O=c1c2c(F)cc(F)cc2nc([C@@H]2CCCN2c2ncnc3[nH]cnc23)n1-c1ccccc1	733	–	> 10000	120	> 10000	> 10000
Nc1nc(N2CCC[C@H]2c2nc3cc(F)cc(F)c3c(=O)n2-c2ccccc2)c2nc[nH]c2n1	318	–	> 10000	150	4300	> 10000
N#Cc1c(N)ncnc1N1CCC[C@H]1c1nc2cc(F)cc(F)c2c(=O)n1-c1ccccc1	292	–	> 10000	43	> 10000	> 10000
CC1(n2c([C@@H]3CCCN3c3nc(N)nc4[nH]cnc34)nc3cccc(Cl)c3c2=O)CC1	32	–	3300	26	58	1030
O=c1c2c(Cl)cccc2nc([C@@H]2CCCN2c2ncnc3[nH]cnc23)n1N1CCOCC1	80	–	> 10000	35	140	2800
O=c1c2c(Cl)cccc2nc([C@@H]2CCCN2c2ncnn3ccnc23)n1-c1ccccc1	56	–	5150	34	103	4670
Cc1ccccc1-n1c([C@@H]2CCON2c2ncnc3[nH]cnc23)nc2cccc(Cl)c2c1=O	2480	–	> 10000	100	1200	> 10000
COc1ccc(-n2c([C@@H]3CCCN3c3ncnc(N)c3C#N)nc3cccc(Cl)c3c2=O)cn1	152	–	> 10000	240	460	> 10000
CN(C)n1c([C@@H]2CCCN2c2nc(N)nc3[nH]cnc23)nc2cccc(Cl)c2c1=O	128	–	2860	110	780	1200
COc1ccc(-n2c([C@@H]3CCCN3c3nc(N)nc4[nH]cnc34)nc3cccc(Cl)c3c2=O)cn1	651	–	> 10000	270	220	8400
Cc1nc(N)nc(N2CCC[C@H]2c2nc3cc(F)cc(F)c3c(=O)n2-c2ccccc2)c1C#N	148	–	> 10000	73	3100	5600
COc1ccc(-n2c([C@@H]3CCCN3c3ncnc4[nH]cnc34)nc3cccc(Cl)c3c2=O)cn1	1400	–	> 10000	660	1900	> 10000
CO[C@H]1C[C@@H](c2nc3cccc(Cl)c3c(=O)n2C2CC2)N(c2nc(N)nc(C)c2C#N)C1	73	–	3540	104	220	1320
O=c1c2c(Cl)cccc2nc([C@@H]2CCCN2c2ncnc3[nH]cnc23)n1C1CCOCC1	179	–	> 10000	59	295	4550
CN(C)n1c([C@@H]2CCCN2c2ncnc3[nH]cnc23)nc2cccc(Cl)c2c1=O	109	–	7680	89	320	2000

Second part, the compound after the results:

IC50 [1] [nM]	IC50 [2] [nM]	IC50 [3] [nM]	IC50 [4] [nM]	IC50 [5] [nM]	IC50 [6] [nM]	SMILES
46	119	6630	11	23	2300	Nc1nc(N2CSC[C@H]2c2nc3cccc(Cl)c3c(=O)n2-c2ccccc2)c2nc[nH]c2n1
35	671	–	18	460	7600	CO[C@H]1C[C@@H](c2nc3cccc(C(F)(F)F)c3c(=O)n2-c2ccccc2)N(c2ncnc(N)c2C#N)C1
3	–	> 10000	8	66	1800	N#Cc1c(N)ncnc1N1C[C@@H](O)C[C@H]1c1nc2cccc(C(F)(F)F)c2c(=O)n1-c1ccccc1
166	–	> 10000	12	590	2400	N#Cc1c(N)ncnc1N1CCC[C@H]1c1nc2cccc(OC(F)F)c2c(=O)n1-c1ccccc1
121	–	> 10000	12	170	> 10000	O=c1c2c(Cl)cccc2nc([C@@H]2CCCN2c2ncnc3[nH]cnc23)n1C1CCCCC1
7	–	2150	7	490	580	CC1(n2c([C@@H]3CCCN3c3ncnc4[nH]cnc34)nc3cccc(Cl)c3c2=O)CC1
149	–	> 10000	24	96	1780	Nc1nc(N2CCC[C@H]2c2nc3cccc(Cl)c3c(=O)n2C2CCCCC2)c2nc[nH]c2n1
84	–	> 10000	20	170	3300	O=c1c2c(Cl)cccc2nc([C@@H]2CCCN2c2ncnc3[nH]cnc23)n1-c1cccnc1
77	–	> 10000	9	70	340	Cc1nc(N)nc(N2CCC[C@H]2c2nc3cccc(OC(F)F)c3c(=O)n2-c2ccccc2)c1C#N
< 3	–	> 10000	14	41	600	Cc1nc(N)nc(N2CCC[C@H]2c2nc3ccc(F)c(F)c3c(=O)n2-c2ccccc2)c1C#N
8	59	–	< 3	5	780	Cc1nc(N)nc(N2C[C@@H](O)C[C@H]2c2nc3cccc(C(F)(F)F)c3c(=O)n2-c2ccccc2)c1C#N
57	–	> 10000	18	202	2940	O=c1c2c(Cl)cccc2nc([C@@H]2CSCN2c2ncnc3[nH]cnc23)n1-c1ccccc1
42	–	2090	17	49	370	Cc1nc(N)nc(N2CCC[C@H]2c2nc3ccc(F)c(C)c3c(=O)n2-c2ccccc2)c1C#N
< 3	–	> 10000	23	230	3100	N#Cc1cnc(N)nc1N1CCC[C@H]1c1nc2cccc(C(F)(F)F)c2c(=O)n1-c1ccccc1
29	–	> 10000	23	53	1230	CO[C@H]1C[C@@H](c2nc3cccc(Cl)c3c(=O)n2N2CCOCC2)N(c2nc(N)nc(C)c2C#N)C1
–	522	–	18	30	390	Cc1nc(N)nc(N2CCC[C@H]2c2nc3ccc(F)c(C(F)(F)F)c3c(=O)n2-c2ccccc2)c1C#N
37	–	210	5	46	460	Cc1nc(N)nc(N2CCC[C@H]2c2nc3cccc(C(F)(F)F)c3c(=O)n2-c2ccccc2)c1C#N
38	–	4470	11	148	6820	Cc1ccccc1-n1c([C@@H]2CSCN2c2ncnc(N)c2C#N)nc2cccc(Cl)c2c1=O
12	–	4590	14	150	7700	N#Cc1c(N)ncnc1N1CCC[C@H]1c1nc2cccc(Cl)c2c(=O)n1-c1cccnc1
–	211	–	13	500	4200	N#Cc1c(N)ncnc1N1CCC[C@H]1c1nc2ccc(F)c(C(F)(F)F)c2c(=O)n1-c1ccccc1
291	–	8580	12	130	2300	Nc1nc(N2CCC[C@H]2c2nc3cccc(Cl)c3c(=O)n2N2CCCCC2)c2nc[nH]c2n1
36	–	> 10000	8	280	4700	N#Cc1c(N)ncnc1N1CCC[C@H]1c1nc2cccc(Cl)c2c(=O)n1C1CCOCC1
